Key:
female APOE*3Leiden mice [1] = experiment: Progression of atherosclerosis (overall, lesion area), Method 2; type: in vivo; settings: 12 weeks; result in words
Procedure: (§1) Fifty-six female APOE*3Leiden mice (age 11-13 weeks, body weight 20-25 gram) were put on a semi-synthetic Western-type diet for 4 weeks and were subsequently treated with or without NO-atorvastatin (13.0 mg/kg b.w. or 0.0108% w/w), ezetimibe (0.1 mg/kg b.w. or 0.000083% w/w until week 6 and 0.3 mg/kg b.w. or 0.000249% w/w from week 6-12) and a combination of NO-atorvastatin with ezetimibe for 12 weeks. At time point t=0, t=4, t=8 and t=12 blood was collected for the measurement of the indicated lipid and inflammation parameters and at sacrifice serum, heart, thoracic aorta and liver were collected. The number of lesions and the number of undiseased segments in the aortic root were measured.

female APOE*3Leiden mice [2] = experiment: Undiseased segments in the aortic root, Method 2; type: in vivo; settings: 12 weeks; for Undiseased segments (% of total): aortic root, n=12 per group, means±SD
Procedure: as §1
The number of undiseased segments in the aortic root was counted individually (n=12 per group) and calculated as percentage of all quantified segments. Values are percentages (means±SD).

female APOE*3Leiden mice [3] = experiment: Number of lesions in the aortic root, Method 2; type: in vivo; settings: for influence on number of lesions as compared to the control group: 12 weeks, result in words; for Lesion number per cross section: t = 12 weeks, NO-atorvastatin 13.0 mg/kg, ezetimibe 0.1 then 0.3 mg/kg, means±SD
Procedure: as §1
The number of lesions per cross section is presented as absolute values (means±SD).

female APOE*3Leiden mice [4] = experiment: Total plasma cholesterol, Method 1; type: in vivo; design: decreased plasma cholesterol levels (vs control): concentration or dose not given beside the values; settings: for Cholesterol: means ± SD
Procedure: Total plasma cholesterol was determined using kit “Chol R1” is from Roche.

female APOE*3Leiden mice [5] = experiment: Plasma ALT levels (liver function), Method 1; type: in vivo; settings: for ALT: pooled plasma
Procedure: Alanine transaminase (ALT), as measure for liver function, was measured in pooled samples using the spectrophotometric assay of the Boehringer Reflotron system.

female APOE*3Leiden mice [6] = settings: t = 8 weeks; means ± SD, n ≧ 9 mice per group
Procedure: (§2) At the end of each treatment period blood was collected for the indicated lipid and inflammation parameters and at sacrifice livers and plasma/serum were collected.
P-Selectin, adhesion molecule as inflammation marker, was determined using commercially available Elisa kit.

female APOE*3Leiden mice [7] = experiment: Plasma triglycerides, Method 1; type: in vivo; settings: for Triglycerides: means ± SD
Procedure: as §2
Triglycerides level was determined using kit “Triglycerides GPO-PAP” from Roche.

[8] = t = 0 (before treatment), n ≧ 9 mice per group
[9] = t = 4 weeks, NO-atorvastatin 4.3 mg/kg, ezetimibe 0.1 mg/kg, fenofibrate 1 mg/kg
[10] = t = 8 weeks, NO-atorvastatin 13 mg/kg, ezetimibe 0.1 mg/kg, fenofibrate 3 mg/kg from week 4
[11] = t = 4 weeks, NO-atorvastatin 4.3 mg/kg, ezetimibe 0.1 mg/kg, fenofibrate 1 mg/kg in diet
[12] = t = 4 weeks, NO-atorvastatin 4.3 mg/kg, fenofibrate 1 mg/kg
[13] = t = 8 weeks, NO-atorvastatin 13 mg/kg, fenofibrate 3 mg/kg from week 4

SMILES	effect on progression of atherosclerosis (female APOE*3Leiden mice [1])	effect on number of undiseased segments (female APOE*3Leiden mice [2]; result in words)	Undiseased segments (% of total) (female APOE*3Leiden mice [2])	influence on number of lesions as compared to the control group (female APOE*3Leiden mice [3])	Lesion number per cross section (female APOE*3Leiden mice [3])	decreased plasma cholesterol levels (vs control) (female APOE*3Leiden mice [4]; after 4 weeks of treatment)	decreased plasma cholesterol levels (vs control) (female APOE*3Leiden mice [4]; after 8 weeks of treatment)	Cholesterol (female APOE*3Leiden mice [4]; [8])	Cholesterol (female APOE*3Leiden mice [4]; [9])	Cholesterol (female APOE*3Leiden mice [4]; [10])	ALT (female APOE*3Leiden mice [5]; [8])	ALT (female APOE*3Leiden mice [5]; [11])	ALT (female APOE*3Leiden mice [5]; [10])	P-Selectin (female APOE*3Leiden mice [6])	Triglycerides (female APOE*3Leiden mice [7]; [8])	Triglycerides (female APOE*3Leiden mice [7]; [12])	Triglycerides (female APOE*3Leiden mice [7]; [13])	decrease of plasma triglycerides compared to the control group (female APOE*3Leiden mice [7]; t=8 weeks)	increased ALT levels as compared to the control mice (female APOE*3Leiden mice [5]; t=4 weeks)	increased ALT levels as compared to the control mice (female APOE*3Leiden mice [5]; t=8 weeks)
O=C1[C@H](CC[C@H](O)c2ccc(F)cc2)[C@@H](c2ccc(O)cc2)N1c1ccc(F)cc1 [Ezetimibe, ezetimibe]	did not affect the progression of atherosclerosis	did not affect the number of undiseased segments	16.0 ± 14.8 % of total	did not influence the number of lesions	3.5 ± 1.0	−25%	−35%	18.6 ± 2.6 mmol/L	16.8 ± 2.4 mmol/L	14.9 ± 3.2 mmol/L	120 U/L	92 U/L	81 U/L	–	–	–	–	–	–	–
CC(C)c1c(C(=O)Nc2ccccc2)c(-c2ccccc2)c(-c2ccc(F)cc2)n1CC[C@@H](O)C[C@@H](O)CC(=O)OCCCCO[N+](=O)[O-] [NO-atorvastatin, atorvastatin 4-(nitrooxy) butyl ester]	reduced atherosclerosis in lesion area	–	26.4 ± 15.0 % of total	did not influence the number of lesions	3.2 ± 0.7	−21%	−34%	18.6 ± 2.8 mmol/L	17.7 ± 2.5 mmol/L	15.2 ± 3.0 mmol/L	120 U/L	114 U/L	91 U/L	190 ± 23 ng/mL	2.7 ± 0.3 mmol/L	3.2 ± 0.7 mmol/L	2.7 ± 0.5 mmol/L	–	–	–
CC(C)OC(=O)C(C)(C)Oc1ccc(C(=O)c2ccc(Cl)cc2)cc1 [Fenofibrate, fenofibrate]	–	–	–	–	–	no effect	−28%	–	–	16.5 ± 2.2 mmol/L	–	–	–	–	2.6 ± 0.7 mmol/L	2.2 ± 0.5 mmol/L	1.6 ± 0.5 mmol/L	41%	+43%	+60%

Source: patent publication US20110077232A1, “COMPOSITIONS COMPRISING ATORVASTATIN 4-(NITROOXY) BUTYL ESTER AND A HYPOLIPIDEMIC DRUG” (Nicox S.A., priority 2008, published 2011)
